Residue numbers refer to the chain shown, from its start.
Columns and labels:
[1] = molecular target: T1, hM1 mAChR (Homo sapiens, UniProt P11229); assay: Radioligand equilibrium binding assay
T1 sequence (P11229 1-460): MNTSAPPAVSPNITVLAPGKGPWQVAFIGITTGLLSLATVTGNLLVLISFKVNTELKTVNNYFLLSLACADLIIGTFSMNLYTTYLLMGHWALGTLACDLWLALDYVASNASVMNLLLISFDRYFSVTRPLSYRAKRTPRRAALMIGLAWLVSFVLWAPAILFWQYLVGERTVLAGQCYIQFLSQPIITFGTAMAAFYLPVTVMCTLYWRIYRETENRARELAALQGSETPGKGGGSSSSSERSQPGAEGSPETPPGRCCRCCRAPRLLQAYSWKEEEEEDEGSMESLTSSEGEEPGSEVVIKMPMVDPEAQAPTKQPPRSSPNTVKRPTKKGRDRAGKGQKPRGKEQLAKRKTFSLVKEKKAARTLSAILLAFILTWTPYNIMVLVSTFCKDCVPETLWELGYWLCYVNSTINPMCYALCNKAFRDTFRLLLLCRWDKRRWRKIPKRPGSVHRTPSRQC

[2] = molecular target: T1, hM1 mAChR; assay: IP1 accumulation assay in FlpInCHO-hM1; assay type: cell-based; conditions: for log τB (logarithm of the operational efficacy parameter of the allosteric modulator): operational model of allosterism (eq 2); for log τB (logarithm of the operational efficacy parameter of the allosteric modulator) / log αβ (logarithm of the functional cooperativity estimate between ACh and allosteric modulator): pKB fixed to binding value; for log αβ (logarithm of the functional cooperativity estimate between ACh and allosteric modulator): operational model of allosterism; for cluster of two-point profile (change in baseline versus change in pEC50): 1 and 10 μM modulator, compared with BQCA, CHO-M1 cells
[3] = molecular target: T2, M1 mAChR (Mus musculus, UniProt P12657); assay: IP1 accumulation assay in mouse primary cortical neurons; assay type: cell-based; conditions: for log τB (logarithm of the operational efficacy estimate) / τB (antilogarithm of the operational efficacy parameter): IP1 accumulation
T2 sequence (P12657 1-460): T1 sequence (P11229 1-460) with A5V, T254S, R320K, A337G, I413V

[4] = 3H-NMS 0.5 nM, allosteric ternary complex model
[5] = mouse cortical neurons, ACh-mediated IP1 accumulation

| SMILES | Kb [1] [µM] | log α (logarithm of the binding cooperativity between ACh and allosteric modulator) [1, 4] | log τB (logarithm of the operational efficacy parameter of the allosteric modulator) [2] | log αβ (logarithm of the functional cooperativity estimate between ACh and allosteric modulator) [2] | cluster of two-point profile (change in baseline versus change in pEC50) [2] | further results |
| --- | --- | --- | --- | --- | --- | --- |
| Cc1ccc(COc2ccccc2-c2cc(=O)n(C3CCCCC3O)cn2)cn1 (centres unmarked) [Compound 9i, 3-(2-Hydroxycyclohexyl)-6-(2-((6-methylpyridin-3-yl)methoxy)-phenyl)pyrimidin-4(3H)-one] | 5.5 | 1.30 ± 0.16 | 0.37 ± 0.05 | 1.24 ± 0.18 |  | Kb [3]: 3.24 µM; log αβ (logarithm of the functional cooperativity estimate) [3, 5]: 0.98 ± 0.11; αβ (antilogarithm of the functional cooperativity parameter) [3, 5]: (9.5); log τB (logarithm of the operational efficacy estimate) ([3]; mouse cortical neurons): −0.52 ± 0.09; τB (antilogarithm of the operational efficacy parameter) ([3]; mouse cortical neurons): (0.30) |
| O=C(O)c1ccc(COc2ccccc2-c2cc(=O)n(C3CCCCC3O)cn2)cc1 (centres unmarked) [Compound 14a, 4-((2-(1-(2-Hydroxycyclohexyl)-6-oxo-1,6-dihydropyrimidin-4-yl)phenoxy)methyl)benzoic acid] |  |  |  |  | cluster 1 |  |
| NC(=O)c1ccc(COc2ccccc2-c2cc(=O)n(C3CCCCC3O)cn2)cc1 (centres unmarked) [Compound 14b, 4-((2-(1-(2-Hydroxycyclohexyl)-6-oxo-1,6-dihydropyrimidin-4-yl)phenoxy)methyl) benzamide] |  | 1.11 ± 0.09 | 0.61 ± 0.06 | 1.14 ± 0.26 | cluster 2 | pKB (negative logarithm of the binding affinity estimate of the allosteric modulator) [1, 4]: 6.72 ± 0.03 |
| O=c1cc(-c2ccccc2OCc2ccc(-c3cn[nH]c3)cc2)ncn1C1CCCCC1O (centres unmarked) [Compound 10, 6-(2-((4-(1H-Pyrazol-4-yl)benzyl)oxy)phenyl)-3-(2-hydroxycyclohexyl)pyrimidin-4(3H)-one] |  |  |  |  | cluster 2 |  |
| O=c1cc(-c2ccccc2OCc2ccccc2)ncn1C1CCCCC1O (centres unmarked) [Compound 13, 6-(2-(Benzyloxy)phenyl)-3-(2-hydroxycyclohexyl)pyrimidin-4(3H)-one] | 2.95 | 1.14 ± 0.13 | 0.34 ± 0.05 | 1.30 ± 0.14 | cluster 1 |  |
| CN(C)S(=O)(=O)c1ccc(COc2ccccc2-c2cc(=O)n(C3CCCCC3O)cn2)cc1 (centres unmarked) [Compound 9l, 4-((2-(1-(2-Hydroxycyclohexyl)-6-oxo-1,6-dihydropyrimidin-4-yl)phenoxy)methyl)-N,N-dimethylbenzenesulfonamide] |  |  |  |  | cluster 3 |  |
| Cn1cc(-c2ccc(COc3ccccc3-c3cc(=O)n(C4CCCCC4O)cn3)cc2)cn1 (centres unmarked) [Compound 2, 3-(2-Hydroxycyclohexyl)-6-(2-((4-(1-methyl-1H-pyrazol-4-yl)-benzyl)oxy)phenyl)pyrimidin-4(3H)-one] | 0.324 | 1.07 ± 0.19 | 0.45 ± 0.08 | 0.79 ± 0.38 | cluster 2 | Kb [3]: 9.55 µM; log αβ (logarithm of the functional cooperativity estimate) [3, 5]: 2.12 ± 0.18; αβ (antilogarithm of the functional cooperativity parameter) [3, 5]: (132); log τB (logarithm of the operational efficacy estimate) ([3]; mouse cortical neurons): 0.47 ± 0.13; τB (antilogarithm of the operational efficacy parameter) ([3]; mouse cortical neurons): (2.95) |
| NS(=O)(=O)c1ccc(COc2ccccc2-c2cc(=O)n(C3CCCCC3O)cn2)cc1 (centres unmarked) [Compound 9k, 4-((2-(1-(2-Hydroxycyclohexyl)-6-oxo-1,6-dihydropyrimidin-4-yl)phenoxy)methyl) benzenesulfonamide] |  |  |  |  | cluster 2 |  |
| COc1ccc(Cn2cc(C(=O)O)c(=O)c3ccccc32)cc1 [BQCA, reference compound] |  | 1.26 ± 0.13 |  |  |  | log αβ (logarithm of the functional cooperativity estimate) [3, 5]: 1.73 ± 0.34; pKB (negative logarithm of the functional binding affinity estimate for the allosteric modulator) [3, 5]: 4.69 ± 0.40; αβ (antilogarithm of the functional cooperativity parameter) [3, 5]: (54) |

Second part, led by results:

| Kb [1] [µM] | log α (logarithm of the binding cooperativity between ACh and allosteric modulator) [1, 4] | log τB (logarithm of the operational efficacy parameter of the allosteric modulator) [2] | log αβ (logarithm of the functional cooperativity estimate between ACh and allosteric modulator) [2] | cluster of two-point profile (change in baseline versus change in pEC50) [2] | SMILES | further results |
| --- | --- | --- | --- | --- | --- | --- |
|  |  |  |  | cluster 3 | CN(C)C(=O)c1ccc(COc2ccccc2-c2cc(=O)n(C3CCCCC3O)cn2)cc1 (centres unmarked) [Compound 15a, 4-((2-(1-(2-Hydroxycyclohexyl)-6-oxo-1,6-dihydropyrimidin-4-yl)phenoxy)methyl)-N,N-dimethylbenzamide] |  |
| 16.2 | 0.81 ± 0.12 | −0.09 ± 0.06 | 0.85 ± 0.16 | cluster 3 | CCN(CC)C(=O)c1ccc(COc2ccccc2-c2cc(=O)n(C3CCCCC3O)cn2)cc1 (centres unmarked) [Compound 15c, N,N-Diethyl-4-((2-(1-(2-hydroxycyclohexyl)-6-oxo-1,6-dihydropyrimidin-4-yl)phenoxy)methyl)benzamide] |  |
|  |  |  |  | cluster 4 | CNC(=O)c1ccc(COc2ccccc2-c2cc(=O)n(C3CCCCC3O)cn2)cc1 (centres unmarked) [Compound 15b, 4-((2-(1-(2-Hydroxycyclohexyl)-6-oxo-1,6-dihydropyrimidin-4-yl)phenoxy)methyl)-N-methylbenzamide] |  |
| 0.269 | 1.27 ± 0.13 | 0.79 ± 0.04 | 1.05 ± 0.20 | cluster 4 | CCNC(=O)c1ccc(COc2ccccc2-c2cc(=O)n(C3CCCCC3O)cn2)cc1 (centres unmarked) [Compound 15d, N-Ethyl-4-((2-(1-(2-hydroxycyclohexyl)-6-oxo-1,6-dihydropyrimidin-4-yl)phenoxy)methyl)benzamide] |  |
|  |  |  |  | cluster 3 | O=C(c1ccc(COc2ccccc2-c2cc(=O)n(C3CCCCC3O)cn2)cc1)N1CCCCC1 (centres unmarked) [Compound 15e, 3-(2-Hydroxycyclohexyl)-6-(2-((4-(piperidine-1-carbonyl)benzyl)-oxy)phenyl)pyrimidin-4(3H)-one] |  |

From article PMC7616175 (ACS chemical neuroscience, 2018)
